# Species on record: Rattus norvegicus
# Test: DrugMatrix - Regimen: Daily Repeat
# Type: toxicity, organism-based, Sprague-Dawley
# Set-up: regimen Daily Repeat, gender Male, age 6-8 weeks
# Settings: in vivo, po, route oral GAVAGE, […]
# [1] = 0 mg/kg, 72 h, tissue Blood, dose level Control, time 3 day
# [2] = 0 mg/kg, 72 h, tissue Plasma, dose level Control, time 3 day
# [3] = 0 mg/kg, 120 h, tissue Blood, dose level Control, time 5 day
# [4] = 0 mg/kg, 120 h, tissue Plasma, dose level Control, time 5 day
# [5] = 72 h, tissue Blood, dose 6.3 mg/Kg, dose level Low, time 3 day
# [6] = 72 h, tissue Plasma, dose 6.3 mg/Kg, dose level Low, time 3 day
# [7] = 120 h, tissue Blood, dose 6.3 mg/Kg, dose level Low, time 5 day
# [8] = 120 h, tissue Plasma, dose 6.3 mg/Kg, dose level Low, time 5 day
substance,measurement,setting,value
ZIRCONIUM(IV) CHLORIDE,ABSOLUTE BASOPHIL,[1],0 CELLS/uL
same,ABSOLUTE EOSINOPHIL,[1],13.67 CELLS/uL
same,ABSOLUTE LYMPHOCYTE,[1],10069.5 CELLS/uL
same,ABSOLUTE MONOCYTE,[1],50 CELLS/uL
same,ABSOLUTE SEGMENTED NEUTROPHIL,[1],516.83 CELLS/uL
same,BASOPHIL,[1],0%
same,EOSINOPHIL,[1],0.17%
same,ERYTHROCYTE COUNT,[1],5.44 x10E6/uL
same,HEMATOCRIT,[1],33.88%
same,HEMOGLOBIN,[1],13.23 G/DL
same,LEUKOCYTE COUNT,[1],10.65 x10E3/uL
same,LYMPHOCYTE,[1],94.67%
same,MEAN CORPUSCULAR HEMOGLOBIN,[1],24.37 pg
same,MEAN CORPUSCULAR HEMOGLOBIN CONCENTRATION,[1],39.05 G/DL
same,MONOCYTE,[1],0.67%
same,NEUTROPHIL,[1],4.5%
same,NUCLEATED RED BLOOD CELLS,[1],0.33 /100WBC
same,PLATELET COUNT,[1],414.5 x10E3/uL
same,ALANINE AMINOTRANSFERASE,[2],72 u/L
same,ALKALINE PHOSPHATASE,[2],375 u/L
same,ASPARTATE AMINOTRANSFERASE,[2],87.5 u/L
same,BLOOD UREA NITROGEN,[2],14 mg/dL
same,CARBON DIOXIDE,[2],27.5 mmol/L
same,CHLORIDE,[2],95.83 MEQ/L
same,CHOLESTEROL,[2],68.5 mg/dL
same,CREATINE PHOSPHOKINASE,[2],284.33 u/L
same,CREATININE,[2],0.16 mg/dL
same,LACTATE DEHYDROGENASE,[2],101.83 u/L
same,PHOSPHORUS,[2],10.33 mg/dL
same,POTASSIUM,[2],5.22 MEQ/L
same,TOTAL BILIRUBIN,[2],0.13 mg/dL
same,TOTAL PROTEIN,[2],5.43 G/DL
same,URIC ACID,[2],0.8 mg/dL
same,ABSOLUTE BASOPHIL,[3],0 CELLS/uL
same,ABSOLUTE EOSINOPHIL,[3],20.67 CELLS/uL
same,ABSOLUTE LYMPHOCYTE,[3],11518.33 CELLS/uL
same,ABSOLUTE MONOCYTE,[3],47 CELLS/uL
same,ABSOLUTE SEGMENTED NEUTROPHIL,[3],614 CELLS/uL
same,BASOPHIL,[3],0%
same,EOSINOPHIL,[3],0.17%
same,ERYTHROCYTE COUNT,[3],5.61 x10E6/uL
same,HEMATOCRIT,[3],34.25%
same,LEUKOCYTE COUNT,[3],12.2 x10E3/uL
same,LYMPHOCYTE,[3],94.33%
same,MEAN CORPUSCULAR HEMOGLOBIN,[3],23.83 pg
same,MEAN CORPUSCULAR HEMOGLOBIN CONCENTRATION,[3],39.08 G/DL
same,MEAN CORPUSCULAR VOLUME,[3],61.03 fL
same,MONOCYTE,[3],0.33%
same,NEUTROPHIL,[3],5.17%
same,NUCLEATED RED BLOOD CELLS,[3],0 /100WBC
same,PLATELET COUNT,[3],941.83 x10E3/uL
same,ALANINE AMINOTRANSFERASE,[4],68.83 u/L
same,ALKALINE PHOSPHATASE,[4],492.67 u/L
same,ASPARTATE AMINOTRANSFERASE,[4],83.33 u/L
same,BLOOD UREA NITROGEN,[4],14 mg/dL
same,CARBON DIOXIDE,[4],37 mmol/L
same,CHLORIDE,[4],98.67 MEQ/L
same,CHOLESTEROL,[4],56.5 mg/dL
same,CREATINE PHOSPHOKINASE,[4],167.33 u/L
same,CREATININE,[4],0.17 mg/dL
same,GLUCOSE,[4],157.5 mg/dL
same,LACTATE DEHYDROGENASE,[4],104.83 u/L
same,LIPASE,[4],10 u/L
same,PHOSPHORUS,[4],10.43 mg/dL
same,POTASSIUM,[4],5.46 MEQ/L
same,TOTAL BILIRUBIN,[4],0.17 mg/dL
same,TOTAL PROTEIN,[4],5.72 G/DL
same,URIC ACID,[4],0.85 mg/dL
same,ABSOLUTE BASOPHIL,[5],0 CELLS/uL
same,ABSOLUTE EOSINOPHIL,[5],0 CELLS/uL
same,ABSOLUTE LYMPHOCYTE,[5],15285.67 CELLS/uL
same,ABSOLUTE MONOCYTE,[5],331 CELLS/uL
same,ABSOLUTE SEGMENTED NEUTROPHIL,[5],1716.67 CELLS/uL
same,BASOPHIL,[5],0%
same,EOSINOPHIL,[5],0%
same,ERYTHROCYTE COUNT,[5],5.71 x10E6/uL
same,HEMOGLOBIN,[5],13.97 G/DL
same,LEUKOCYTE COUNT,[5],17.33 x10E3/uL
same,LYMPHOCYTE,[5],88%
same,MEAN CORPUSCULAR HEMOGLOBIN CONCENTRATION,[5],38.27 G/DL
same,MONOCYTE,[5],2%
same,NEUTROPHIL,[5],10%
same,NUCLEATED RED BLOOD CELLS,[5],0 /100WBC
same,PLATELET COUNT,[5],1101 x10E3/uL
same,ALANINE AMINOTRANSFERASE,[6],74.67 u/L
same,ALKALINE PHOSPHATASE,[6],510.33 u/L
same,ASPARTATE AMINOTRANSFERASE,[6],87.33 u/L
same,BLOOD UREA NITROGEN,[6],14.33 mg/dL
same,CARBON DIOXIDE,[6],27 mmol/L
same,CHOLESTEROL,[6],56.33 mg/dL
same,CREATINE PHOSPHOKINASE,[6],244 u/L
same,CREATININE,[6],0.15 mg/dL
same,GLUCOSE,[6],186.67 mg/dL
same,LACTATE DEHYDROGENASE,[6],186 u/L
same,PHOSPHORUS,[6],12.53 mg/dL
same,POTASSIUM,[6],5.75 MEQ/L
same,TOTAL BILIRUBIN,[6],0.1 mg/dL
same,ABSOLUTE BASOPHIL,[7],0 CELLS/uL
same,ABSOLUTE EOSINOPHIL,[7],0 CELLS/uL
same,ABSOLUTE LYMPHOCYTE,[7],13034.67 CELLS/uL
same,ABSOLUTE MONOCYTE,[7],344.67 CELLS/uL
same,ABSOLUTE SEGMENTED NEUTROPHIL,[7],1154 CELLS/uL
same,BASOPHIL,[7],0%
same,EOSINOPHIL,[7],0%
same,ERYTHROCYTE COUNT,[7],6.21 x10E6/uL
same,HEMATOCRIT,[7],38.6%
same,HEMOGLOBIN,[7],14.47 G/DL
same,LEUKOCYTE COUNT,[7],14.53 x10E3/uL
same,MEAN CORPUSCULAR HEMOGLOBIN,[7],23.3 pg
same,MEAN CORPUSCULAR HEMOGLOBIN CONCENTRATION,[7],37.47 G/DL
same,NEUTROPHIL,[7],8%
same,NUCLEATED RED BLOOD CELLS,[7],0 /100WBC
same,PLATELET COUNT,[7],1100.67 x10E3/uL
same,ALANINE AMINOTRANSFERASE,[8],68.67 u/L
same,ALKALINE PHOSPHATASE,[8],472.33 u/L
same,ASPARTATE AMINOTRANSFERASE,[8],84.33 u/L
same,BLOOD UREA NITROGEN,[8],13.33 mg/dL
same,CARBON DIOXIDE,[8],31.33 mmol/L
same,CHOLESTEROL,[8],55.33 mg/dL
same,CREATINE PHOSPHOKINASE,[8],232 u/L
same,CREATININE,[8],0.14 mg/dL
same,LACTATE DEHYDROGENASE,[8],112.67 u/L
same,PHOSPHORUS,[8],11.63 mg/dL
same,POTASSIUM,[8],6.33 MEQ/L
same,TOTAL BILIRUBIN,[8],0.2 mg/dL
same,TOTAL PROTEIN,[8],5.5 G/DL

# From ChEMBL document CHEMBL3885881, “DrugMatrix”
